Assays:
hippocampal slices = experiment: spontaneous interictal-like bursts in hippocampal slices; type: cell-based, rat
[1] = tested on: acute rat hippocampal slice; experiment: imaging of intrinsic optical signals in hippocampal slice; type: cell-based
Excerpt: For imaging of intrinsic optical signals, the tissue was illuminated with a beam of white light (tungsten filament light and lens system; Dedotec USA, Lodi, N.J.) directed through the microscope condenser. The light was controlled and regulated (power supply: Lambda Electronics, Melville, N.Y.) to minimize fluctuations and filtered (695 nm long-pass) so that the slice was transilluminated with long wavelengths (red). Image frames were acquired with a charge-coupled device camera (Dage-MTI) at 30 Hz and were digitized at 8 bits with a spatial resolution of 512 by 480 pixels by means of an Imaging Technology Series 151 imaging system; gains and offsets of the camera-control box and the analog-to-digital board were adjusted to optimize the sensitivity of the system. […] To increase signal-to-noise ratio, an averaged image was composed from 16 individual image-frames, integrated over 0.5 s and averaged together. […] Pseudocolored images were calculated by subtracting the first control image from subsequently acquired images and assigned a color lookup table to the pixel values. For these images, usually a linear low-pass filter was used to remove high-frequency noise and a linear-histogram stretch was used to map the pixel values over the dynamic range of the system. All operations on these images were linear so that quantitative information was preserved. […]

[2] = tested on: acute rat hippocampal slice; experiment: stimulation-evoked afterdischarge, extracellular field recordings in hippocampal slice; type: cell-based
Procedure: Sprague-Dawley rats (male and female; 25 to 35 days old) were prepared as described in Aghajanian, A. K. and Rasmussen, K., Synapse 31:331, 1989; and Buckmaster, P. S., Strowbridge, B. W., Schwartzdroin, P. A., J. Neurophysiol. 70:1281, 1993. In most hippocampal slice experiments, simultaneous extracellular field electrode recordings were obtained from CA1 and CA3 areas. For stimulation-evoked afterdischarge (13 slices, 8 animals), the concentration of Mg^2+ in the bathing medium was reduced to 0.9 mM. A bipolar tungsten stimulating electrode was placed on the Schaffer collaterals to evoke synaptically driven field responses in CA1; stimuli consisted to 100 to 300-μs-duration pulses at an intensity of four times population-spike threshold. Afterdischarges were evoked by a 2-s train of such stimuli delivered at 60 Hz. […] In all treatments, perfusion with furosemide-containing medium was begun after a consistent level of bursting had been established.
FIG. 2A1 illustrates that two seconds of electrical stimulation at 60 Hz elicited afterdischarge activity. […] The color bar indicates increasing magnitude of activity-evoked optical changes from the bottom to the top of the bar. The region of maximum optical change (red, yellow) corresponds to the apical and basal dendritic regions of CA1 on either side of the stimulating electrode. FIGS. 2B1-2BC illustrate responses to electrical stimulation following 20 minutes of perfusion with medium containing 2.5 mM furosemide.

[3] = following treatment with furosemide, FIG. 3E

## Nc1ccncc1 [4-AP]
Hippocampal slices; 200 to 300 μM 4-AP in bathing medium, 4 slices, 2 animals
  spontaneous interictal-like bursts, average: 33 burst/min

## [K+] [K^+]
Hippocampal slices; 10 mM K+ in bathing medium, 6 slices, 4 animals
  spontaneous interictal-like bursts, average: 81 bursts/min

## NS(=O)(=O)c1cc(C(=O)O)c(NCc2ccco2)cc1Cl [furosemide]
[1]; 20 minutes of perfusion with medium containing 2.5 mM furosemide, FIG. 2BC
  stimulation-evoked optical changes: blocked
[1]; [3]
  intrinsic optical signal (peak optical change during electrical stimulation): blocks
[2]; 20 minutes of perfusion with medium containing 2.5 mM furosemide, 2 s stimulation at 60 Hz, FIG. 2B2
  electrical afterdischarge activity: blocked
[2]; 20 minutes of perfusion with medium containing 2.5 mM furosemide, FIG. 2B1
  field response to the test pulse: hyperexcitable field response (multiple population spikes)
[2]; following 45 minutes of perfusion with normal bathing medium, FIGS. 2C1-2C3
  reversibility of the effect after washout: restoration of the initial response pattern
[2]; [3]
  epileptiform activity during electrical stimulation: blocks
